These results are taken from ChEMBL document CHEMBL3044789, “Comparing weed and crop seedling response to pre-emergence pendimethalin application in Corchorus olitorius and Abelmoschus esculentus” (Crop Prot, 2006).

For data set [1], the system named is Euphorbia heterophylla. Nature of the data set: Herbicidal activity against Euphorbia heterophylla in Corchorus olitorius plots assessed as major weed growth at 1.32 kg a.i/ha after 2 weeks. It counts as functional.
Data set [2] has as its system Asteraceae. Nature of the data set: Herbicidal activity against Aspilia africana in Corchorus olitorius plots assessed as minor weed growth at 0.66 kg a.i/ha after 2 weeks. The format is functional.
Data set [3] has as its system Talinum fruticosum. Description: Herbicidal activity against Talinum fruticosum in Corchorus olitorius plots assessed as weed recovery at 0.99 kg a.i/ha after 2 weeks (reference value: 78.3 +/- 0.74 %). The format is functional.
Data set [4] deals with Chromolaena odorata. Description: Herbicidal activity against Chromolaena odorata in Corchorus olitorius plots assessed as weed cover at 0.99 kg a.i/ha after 7 weeks (reference value: 1.7 +/- 0.56 %). It counts as functional.
Data set [5] deals with Abelmoschus esculentus. Description: Phytotoxicity in Abelmoschus esculentus assessed as root length at 0.99 kg a.i/ha treated to soil after 7 weeks (reference value: 2.9 +/- 0.45 mm). The format is organism-based. As to conditions: in vivo, other, 1176 h.
Data set [6] deals with Abelmoschus esculentus. Description: Phytotoxicity in Abelmoschus esculentus assessed as root length at 1.32 kg a.i/ha treated to soil after 7 weeks (reference value: 2.9 +/- 0.45 mm). The format is organism-based. As to conditions: in vivo, other, 1176 h.
Data set [7] concerns Corchorus olitorius. Nature of the data set: Phytotoxicity in Corchorus olitorius assessed as seed germination at 1.32 kg a.i/ha applied as solution after 7 weeks relative to untreated control. The format is organism-based. As to conditions: in vivo, other, 1176 h.
Data set [8] concerns Synedrella nodiflora. Nature of the data set: Herbicidal activity against Synedrella nodiflora in Corchorus olitorius plots assessed as weed recovery at 0.66 kg a.i/ha after 2 weeks (reference value: 78.3 +/- 0.74 %). The format is functional.
The subject of data set [9] is Abelmoschus esculentus. Nature of the data set: Phytotoxicity in Abelmoschus esculentus assessed as root length at 1.32 kg a.i/ha applied as solution after 7 weeks (reference value: 23 +/- 0.34 mm). The note with it: in vivo, other, 1176 h. It counts as organism-based.
Data set [10] concerns Commelina diffusa. Nature of the data set: Herbicidal activity against Commelina diffusa in Corchorus olitorius plots assessed as weed cover at 0.66 kg a.i/ha after 2 weeks (reference value: 81.7 +/- 0.43 %). It counts as functional.
Data set [11] has as its system Calopogonium mucunoides. Description: Herbicidal activity against Calopogonium mucunoides in Abelmoschus esculentus plots assessed as major weed growth at 1.32 kg a.i/ha after 2 weeks. The format is functional.
Data set [12] has as its system Chromolaena odorata. Nature of the data set: Herbicidal activity against Chromolaena odorata in Corchorus olitorius plots assessed as weed recovery at 0.33 kg a.i/ha after 2 weeks (reference value: 78.3 +/- 0.74 %). The format is functional.
Data set [13] deals with Corchorus olitorius. Nature of the data set: Phytotoxicity in Corchorus olitorius assessed as shoot length at 0.66 kg a.i/ha treated to soil after 7 weeks (reference value: 23.7 +/- 0.10 mm). It counts as organism-based. The note with it: in vivo, other, 1176 h.

On to `CCC(CC)Nc1c([N+](=O)[O-])cc(C)c(C)c1[N+](=O)[O-]` [PENDIMETHALIN], for which the Activity is 31 /m2 in [1]; 1 /m2 in data set [2]; 21.7% in data set [3]; 95% in data set [4]; 1.1 mm in data set [5]; 1.5 mm in data set [6]. Besides, the Activity is reported as 68.3% in data set [7]; 33.3% in data set [8]; 11.5 mm in [9]; 51.7% in data set [10]; 31 /m2 in data set [11]; 31.7% in data set [12]. Also, the Activity in [13] is 20.8 mm.
